Data on two molecules can be found in article PMC9501129 (Pharmaceutics, 2022).

SMILES strings stand for the structures. Like-named read-outs stand apart in the source and are kept apart here.

Data set [1] can be described thus: Amniotic fluid drug concentration in mouse pregnancy model (HPLC-MSMS). In kind it is in vivo, C57BL/6J mice. The note with it: female, C57BL/6J, mouse, amniotic fluid / maternal plasma, oral, pregnant mice. The text has this:
All animal experiments were approved by the University Health Network Animal Use Committee (protocol #2575) and performed according to the policies and guidelines of the Canadian Council on Animal Care. C57BL/6J mice bred in-house (original breeders from Jackson Laboratory RRID:IMSR JAX:000664) were maintained under a 12-h light/dark cycle, with ad libitum access to food and water. Animals were acclimated to their surroundings for 1 week prior to experiment initiation. Males were isolated for 7 days prior to mating. Female mice (7–12 weeks of age) were mated with males at a ratio of 2:1. Presence of vaginal plug was denoted as gestational day 0.5 (GD0.5). Pregnancy was confirmed by weight gain of >1.5 g on GD9.5 and >3 g on GD13.5. […] The equivalent mouse mg/kg dose was calculated based on the human dose divided by an assumed average human weight of 60 kg. […] On GD15.5, mice underwent saphenous bleed 24 h after the GD14.5 dose administration (trough). Immediately after the saphenous bleed, mice were dosed with the appropriate drug regimen and sacrificed 1 h post-treatment (peak), at which time blood was collected by cardiac puncture and amniotic fluid was collected by dissecting the uterus, puncturing the amniotic sac, and draining the amniotic fluid into a sterile dish. Amniotic fluid was pooled for the entire litter. Samples from 2 dams per arm were analyzed for drug levels.
Briefly, 50 μL of plasma or amniotic fluid was spiked with internal standard (ritonavir-d6) followed by protein precipitation with acetonitrile and filtration. Filtrates were diluted 1:9 with ammonium acetate buffer (10 mM) and analyzed by the HPLC-MSMS system, consisting of a Shimadzu Nexera XR high-performance liquid chromatograph (Shimadzu, Columbia, MD, USA) coupled with a SCIEX API 4500 QqQ mass spectrometer (SCIEX, Concord, ON, Canada). Chromatographic separation by Mobile Phase A (10% methanol, 5% 50 mM ammonium acetate, 85% 0.25% acetic acid pH 3.6 ± 0.2) and Mobile Phase B (90% methanol, 5% 50 mM ammonium acetate, 5% 0.25% acetic acid pH 6.6 ± 0.2) was performed under linear gradient conditions (flow rate 0.7 mL/min) on a reverse-phase Zorbax XDB-C18 column (Agilent Technologies, Santa Clara, CA, USA) maintained at 40 °C. […] HPLC-MSMS data were acquired using Analyst (v 1.6.3, SCIEX, Concord, ON, Canada) and analyzed with MultiQuant software (v 3.0.3, SCIEX, Concord, ON, Canada). […] Positive controls spiked in-house and prepared by an external laboratory during a sample exchange program were included in all runs.

Data set [2] has as its system pregnant rabbits. The note with it: cited from earlier work.
For data set [3], the system named is pregnant rats. The note with it: BIC orally 5, 30, or 300 mg/kg/day, gestational day 7 through 17; cited from earlier work.
For data set [4], the system named is pregnant rats. The note with it: BIC orally up to 300 mg/kg/day, gestational day 6 to lactation/postpartum day 24; cited from earlier work.
For data set [5] the following is noted: ex-vivo dually perfused human cotyledon; cited from earlier work.
The conditions of data set [6]: cited from earlier work.
Data set [7] deals with HIV. The note with it: compared to RAL and EVG; cited from earlier work.

As for `O=C(NCc1c(F)cc(F)cc1F)c1cn2c(c(O)c1=O)C(=O)N1[C@H]3CC[C@H](C3)O[C@@H]1C2` [BIC, bictegravir], the Kp at 1 h in data set [1] (1× to 10× BIC, 1 h after dosing, read-out: Ratio of drug in the amniotic fluid to that in maternal plasma) is 0.021 to 0.036; in data set [1] (20× BIC dose, 1 h after dosing, read-out: Ratio of drug in the amniotic fluid to that in maternal plasma), 0.112; in data set [1] (BIC 0.83 mg/kg (1×) oral gavage once daily GD11.5-GD15.5 with TDF 50 mg/kg + FTC 33.3 mg/kg, mean (SD), n=2, read-out: Amniotic: Maternal Plasma Ratio 1 h), 0.021; in data set [1] (BIC 4.15 mg/kg (5×) oral gavage once daily GD11.5-GD15.5 with TDF 50 mg/kg + FTC 33.3 mg/kg, mean (SD), n=2, read-out: Amniotic: Maternal Plasma Ratio 1 h), 0.021; in data set [1] (BIC 8.3 mg/kg (10×) oral gavage once daily GD11.5-GD15.5 with TDF 50 mg/kg + FTC 33.3 mg/kg, mean (SD), n=2, read-out: Amniotic: Maternal Plasma Ratio 1 h), 0.036; in data set [1] (BIC 16.6 mg/kg (20×) oral gavage once daily GD11.5-GD15.5 with TDF 50 mg/kg + FTC 33.3 mg/kg, mean (SD), n=2, read-out: Amniotic: Maternal Plasma Ratio 1 h), 0.112. For the same molecule, in data set [2] (BIC 1000 mg/kg/day), the “Maternal and pregnancy findings” value was “Spontaneous abortion, decreased body weight, and maternal toxicity”. For the same molecule, the Embryo-fetal effects result is listed as “no adverse embryo-fetal effects” in data set [2] (BIC orally 100, 300, or 1000 mg/kg/day, gestational day 7 through 19) and “no adverse embryo-fetal effects” in data set [3]. Also, the “Adverse effects in fetuses or pups” value in data set [4] is recorded as “no significant adverse effects in fetuses or pups”. In addition, in data set [5], the Placental transfer result is “low placental transfer”. Further, the Birth defects observed result in data set [6] (interim report, 140 pregnancies in women treated with BIC during periconception or pregnancy) is “three”. Also, the “Virological suppression through delivery” value in data set [6] (two pregnant women on BIC) is recorded as “remained virologically suppressed through delivery”. Also, the “In vitro resistance profile” value in data set [7] is “improved in vitro resistance profile”.

In the case of `COc1cc2c(cc1Cc1cccc(Cl)c1F)c(=O)c(C(=O)O)cn2[C@H](CO)C(C)C` [EVG, elvitegravir], in data set [6] (second and third trimester), the “Drug levels in pregnancy” value was “inadequate levels in the second and third trimester”.
